Laboratory results published in ChEMBL document CHEMBL1201862, “PubChem BioAssay data set” (2004).
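Interpolation was linear, between the two tested concentrations surrounding the appropriate level; five concentrations were tested over 48 hours in 96-well plates. GI50 is the concentration that inhibits growth by half.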 The source made the active and inactive calls. Cut-off read from the data, not from the text of the source: active = GI50 up to about 1.1 µM and inactive = higher.

Tests used:
Test in all cases: growth of human tumour cells (NCI), 48 h
786-0 = system: 786-0
A498 = system: A498
A549 = system: A549
ACHN = system: ACHN
CAKI-1 = system: CAKI-1
CCRF-CEM = system: CCRF-CEM
COLO 205 = system: COLO 205
DLD-1 = system: DLD-1
DMS-114 = system: DMS-114
DMS-273 = system: DMS-273
EKVX = system: EKVX
HCC 2998 = system: HCC 2998
HCT-116 = system: HCT-116
HCT-15 = system: HCT-15
HL-60 = system: HL-60
HOP-18 = system: HOP-18
HOP-62 = system: HOP-62
HOP-92 = system: HOP-92
HT-29 = system: HT-29
IGROV-1 = system: IGROV-1
K562 = system: K562
KM-20L2 = system: KM-20L2
KM12 = system: KM12
LOX IMVI = system: LOX IMVI
LXFL 529 = system: LXFL 529
M14 = system: M14
M19-MEL = system: M19-MEL
MOLT-4 = system: MOLT-4
Malme-3M = system: Malme-3M
NCI-H226 = system: NCI-H226
NCI-H23 = system: NCI-H23
NCI-H460 = system: NCI-H460
NCI-H522 = system: NCI-H522
OVCAR-3 = system: OVCAR-3
OVCAR-4 = system: OVCAR-4
OVCAR-5 = system: OVCAR-5
OVCAR-8 = system: OVCAR-8
RPMI-8226 = system: RPMI-8226
RXF 393 = system: RXF 393
RXF 631 = system: RXF 631
SF-268 = system: SF-268
SF-295 = system: SF-295
SF-539 = system: SF-539
SK-MEL-28 = system: SK-MEL-28
SK-MEL-2 = system: SK-MEL-2
SK-MEL-5 = system: SK-MEL-5
SK-OV-3 = system: SK-OV-3
SN12C = system: SN12C
SNB-19 = system: SNB-19
SNB-75 = system: SNB-75
SW-620 = system: SW-620
TK-10 = system: TK-10
U-251 = system: U-251
UACC-257 = system: UACC-257
UACC-62 = system: UACC-62
UO-31 = system: UO-31
SNB-78 = system: SNB-78

## COc1cc([C@@H]2c3cc4c(cc3[C@@H](NCc3cccc(C#N)c3)C3COC(=O)[C@@H]32)OCO4)cc(OC)c1O (stereo partly specified)
786-0
  GI50: 1.02 µM (active)
A498
  GI50: 1.43 µM (inactive)
A549
  GI50: 0.0815 µM (active)
ACHN
  GI50: 0.305 µM (active)
CAKI-1
  GI50: 1 µM (active)
CCRF-CEM
  GI50: 0.224 µM (active)
COLO 205
  GI50: 2.99 µM (inactive)
DLD-1
  GI50: 1.7 µM (inactive)
DMS-114
  GI50: 1.87 µM (inactive)
DMS-273
  GI50: 0.349 µM (active)
EKVX
  GI50: 2.39 µM (inactive)
HCC 2998
  GI50: 1.48 µM (inactive)
HCT-116
  GI50: 2.12 µM (inactive)
HCT-15
  GI50: 1.17 µM
HL-60
  GI50: 0.149 µM (active)
HOP-18
  GI50: > 100 µM (inactive)
HOP-62
  GI50: 0.439 µM (active)
HOP-92
  GI50: 1.32 µM (inactive)
HT-29
  GI50: 1.48 µM (inactive)
IGROV-1
  GI50: 1.03 µM (active)
K562
  GI50: 1.83 µM (inactive)
KM-20L2
  GI50: 1.58 µM (inactive)
KM12
  GI50: 1.62 µM (inactive)
LOX IMVI
  GI50: 1.27 µM (inactive)
LXFL 529
  GI50: 5.9 µM (inactive)
M14
  GI50: 1.64 µM (inactive)
M19-MEL
  GI50: 5.7 µM (inactive)
MOLT-4
  GI50: 0.0386 µM (active)
Malme-3M
  GI50: 2.18 µM (inactive)
NCI-H226
  GI50: 0.225 µM (active)
NCI-H23
  GI50: 0.428 µM (active)
NCI-H460
  GI50: 0.0356 µM (active)
NCI-H522
  GI50: 1.46 µM (inactive)
OVCAR-3
  GI50: 2.57 µM (inactive)
OVCAR-4
  GI50: 68.7 µM (inactive)
OVCAR-5
  GI50: 2.84 µM (inactive)
OVCAR-8
  GI50: 1.43 µM (inactive)
RPMI-8226
  GI50: 1.2 µM (inactive)
RXF 393
  GI50: 2.34 µM (inactive)
RXF 631
  GI50: 1.29 µM (inactive)
SF-268
  GI50: 2.22 µM (inactive)
SF-295
  GI50: 0.925 µM (active)
SF-539
  GI50: 0.326 µM (active)
SK-MEL-28
  GI50: 3.32 µM (inactive)
SK-MEL-2
  GI50: 3.77 µM (inactive)
SK-MEL-5
  GI50: 2.02 µM (inactive)
SK-OV-3
  GI50: 1.53 µM (inactive)
SN12C
  GI50: 0.448 µM (active)
SNB-19
  GI50: 1.1 µM (active)
SNB-75
  GI50: 1.06 µM (active)
SW-620
  GI50: 0.646 µM (active)
TK-10
  GI50: 2.39 µM (inactive)
U-251
  GI50: 0.303 µM (active)
UACC-257
  GI50: 6.64 µM (inactive)
UACC-62
  GI50: 0.524 µM (active)
UO-31
  GI50: 2.22 µM (inactive)

## Cc1cc(=O)n(-c2c(C)cccc2Cl)c(/C=C(\O)c2ccncc2)n1
786-0
  GI50: > 100 µM (inactive)
A498
  GI50: > 100 µM (inactive)
A549
  GI50: > 100 µM (inactive)
ACHN
  GI50: > 100 µM (inactive)
CAKI-1
  GI50: > 100 µM (inactive)
CCRF-CEM
  GI50: > 100 µM (inactive)
COLO 205
  GI50: > 100 µM (inactive)
DLD-1
  GI50: > 100 µM (inactive)
DMS-114
  GI50: > 100 µM (inactive)
DMS-273
  GI50: > 100 µM (inactive)
EKVX
  GI50: > 100 µM (inactive)
HCC 2998
  GI50: > 100 µM (inactive)
HCT-116
  GI50: > 100 µM (inactive)
HCT-15
  GI50: > 100 µM
HL-60
  GI50: 6.21 µM (inactive)
HOP-18
  GI50: > 100 µM (inactive)
HOP-62
  GI50: > 100 µM (inactive)
HOP-92
  GI50: 62.1 µM (inactive)
HT-29
  GI50: > 100 µM (inactive)
IGROV-1
  GI50: > 100 µM (inactive)
K562
  GI50: 44.8 µM (inactive)
KM-20L2
  GI50: > 100 µM (inactive)
KM12
  GI50: 48.5 µM (inactive)
LOX IMVI
  GI50: > 100 µM (inactive)
LXFL 529
  GI50: > 100 µM (inactive)
M14
  GI50: > 100 µM (inactive)
MOLT-4
  GI50: > 100 µM (inactive)
Malme-3M
  GI50: > 100 µM (inactive)
NCI-H226
  GI50: > 100 µM (inactive)
NCI-H23
  GI50: > 100 µM (inactive)
NCI-H460
  GI50: > 100 µM (inactive)
NCI-H522
  GI50: > 100 µM (inactive)
OVCAR-3
  GI50: > 100 µM (inactive)
OVCAR-4
  GI50: > 100 µM (inactive)
OVCAR-5
  GI50: 98.6 µM (inactive)
OVCAR-8
  GI50: > 100 µM (inactive)
RXF 393
  GI50: > 100 µM (inactive)
RXF 631
  GI50: > 100 µM (inactive)
SF-268
  GI50: > 100 µM (inactive)
SF-295
  GI50: > 100 µM (inactive)
SF-539
  GI50: > 100 µM (inactive)
SK-MEL-28
  GI50: > 100 µM (inactive)
SK-MEL-2
  GI50: > 100 µM (inactive)
SK-MEL-5
  GI50: 96.4 µM (inactive)
SK-OV-3
  GI50: > 100 µM (inactive)
SN12C
  GI50: > 100 µM (inactive)
SNB-19
  GI50: > 100 µM (inactive)
SNB-75
  GI50: 29.4 µM (inactive)
SNB-78
  GI50: > 100 µM (inactive)
SW-620
  GI50: > 100 µM (inactive)
TK-10
  GI50: > 100 µM (inactive)
U-251
  GI50: > 100 µM (inactive)
UACC-257
  GI50: > 100 µM (inactive)
UACC-62
  GI50: > 100 µM (inactive)
UO-31
  GI50: 35.3 µM (inactive)
